In publication PMC10058583, “Development of Novel Fluorinated Polyphenols as Selective Inhibitors of DYRK1A/B Kinase for Treatment of Neuroinflammatory Diseases including Parkinson’s Disease” (Pharmaceuticals, 2023):

Tests used:
[1] = target: T1, human DYRK1B isoform p65 (GST fusion) (Homo sapiens, UniProt Q9Y463); assay: ELISA-based non-radioactive kinase assay, DYRK1B; assay type: biochemical; conditions: 30 ng GST-DYRK1B, 60 min reaction
T1 construct: made in house
Procedure: (§1) DYRK1B was prepared from human DYRK1B isoform p65 as glutathione S-transferase fusion protein, and DYRK2 was prepared from human DYRK2 isoform 1 as 6xHis-tagged protein, as previously described.
(§2) For DYRK2, the reactions were performed exactly as described for DYRK1A. For DYRK1B, the assays were similarly conducted but with 30 ng GST-DYRK1B and a kinase reaction time of 60 min.

[2] = target: T2, human DYRK2 isoform 1 (6xHis-tagged) (Homo sapiens, UniProt Q92630); assay: ELISA-based non-radioactive kinase assay, DYRK2; assay type: biochemical
T2 sequence (Q92630 74-601 limits assumed): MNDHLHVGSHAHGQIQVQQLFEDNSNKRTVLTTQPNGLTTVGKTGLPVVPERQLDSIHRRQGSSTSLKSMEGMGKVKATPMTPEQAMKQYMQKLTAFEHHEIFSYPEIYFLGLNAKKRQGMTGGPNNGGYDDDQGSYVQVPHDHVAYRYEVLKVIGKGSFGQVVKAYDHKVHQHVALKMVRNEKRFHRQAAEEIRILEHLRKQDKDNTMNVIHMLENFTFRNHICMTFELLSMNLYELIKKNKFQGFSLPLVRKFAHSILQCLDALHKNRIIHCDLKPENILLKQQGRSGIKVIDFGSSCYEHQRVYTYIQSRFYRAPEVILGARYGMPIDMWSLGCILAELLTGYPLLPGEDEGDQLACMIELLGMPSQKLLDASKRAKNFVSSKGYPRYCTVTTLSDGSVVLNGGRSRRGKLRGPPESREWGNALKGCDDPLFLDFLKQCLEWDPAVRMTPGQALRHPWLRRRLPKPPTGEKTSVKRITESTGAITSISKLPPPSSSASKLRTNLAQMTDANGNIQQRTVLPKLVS
Procedure: as §1, §2

[3] = target: T3, 6xHis-tagged rat-truncated DYRK1A (residues 1-497) (Rattus norvegicus, UniProt Q63470); assay: ELISA-based non-radioactive kinase assay, DYRK1A; assay type: biochemical; conditions: read-out: DYRK1A IC50
T3 construct: 6xHis-tagged rat-truncated DYRK1A (residues 1-497); 6xHis; made in house

[4] = target: DYRK1A (Rattus norvegicus, UniProt Q63470); assay: ATP competition assay on DYRK1A; assay type: biochemical; conditions: ATP up to 0.8 mM
[5] = tested on: MPTP-treated C57BL/6J mice; assay: MPTP model for Parkinson's disease; assay type: in vivo, mouse
Procedure: We tested the behavioral effect of 1c in the MPTP model for PD using both IN and PO delivery (both 25 mg/kg, BID). This is a common neurodegenerative disorder model characterized by a progressive loss of dopaminergic (DA) neurons in the […]. Several studies have shown that oxidative stress, neuroinflammation, and microglial activation play a pivotal role, at least in the progression of PD [35].
MPTP dissolved in saline was administered via intraperitoneal injections once daily at a dosage of 30 mg/kg/day for 5 consecutive days. The control group was administered intraperitoneal injections of saline.
The behavioral tests were performed at initiation as the baseline and 3, 6, and 9 days following the last MPTP injection. Pole test: the test consisted of a gauze-taped pole (45 cm high, 1 cm in diameter) with a small cork ball at the top. Mice were placed with their head facing upwards immediately below the ball. Two times were recorded: the time it took for the mouse to turn completely downward (T-turn) and the time it took to descend to the floor (T-total), with a cutoff limit of 60 sec. The test consisted of two trials separated by 10 min intertrial intervals, and the average time was calculated. Mice were pretrained for 3 days before MPTP injection. The rotarod test was used to assess the motor coordination and balance of animals. On the test day, the mice were habituated for 30 min in the test room before testing. The drum was slowly accelerated to a speed of 4–40 rpm for a maximum of 300 s. The latency to fall off the rotarod within this time period was recorded. The test consisted of three trials separated by 10 min intertrial intervals. The mean latency to fall off the rotarod was recorded and used for analysis. Mice were trained for 3 days before MPTP injection.
Tissue Collection and IHC Analysis: within 2 h following the last dose, the blood of animals was collected via cardiac puncture under isoflurane-induced anesthesia. After blood collection, animals were transcardially perfused with normal saline, followed by buffered formalin fixative. Brains were removed, post-fixed, and embedded in paraffin for subsequent IHC analysis of […] (TH)-positive cells in the substantia nigra (SN).

[6] = In vitro and in vivo safety studies (not detailed)
[7] = tested on: LPS-induced inflammation in C57BL/6J mice; assay: LPS-induced inflammation model; assay type: in vivo, mouse
Procedure: Neuroinflammation is an important factor contributing to cognitive impairment and neurodegenerative diseases such as PD, and the administration of LPS is frequently used to study neuroinflammation-associated diseases in mice.
Each group consisted of six male mice. […] Animals were pretreated for 3 days with the drug of choice; then, treatment with LPS commenced on day 0, and on the 5th day of LPS treatment, the drug was administered half an hour before LPS injection. One hour after LPS treatment, the animals were anesthetized with a mixture of ketamine, xylazine 2%, atropine, and saline (4:2.5:1:2.5). The body temperature of mice under anesthesia was maintained by applying a heating blanket and monitored using a rectal thermometer. After anesthesia, the animals underwent cardiac perfusion with ice-cold saline for three minutes (3 mL/minute via peristaltic pump) via the left ventricle. The right atrium was cut as an outflow route. The right hemisphere was post-fixed overnight in 4% PFA in PBS at 4 °C and stored in 1xPBS containing 0.1% (v/w) sodium azide at 4 °C. The left hemisphere, hippocampus, cortex, midbrain, and brainstem were microdissected, immersed in liquid nitrogen in separate tubes (with one-fifth of the rest of the brain tissue), and stored in microfuge tubes at −80°. TNFα (in both plasma and the hippocampus) was analyzed with ELISA, and the p-tau (AT-8 antibody) level was recorded in the hippocampus and cortex with WB.

[8] = IN or PO 25 mg/kg BID, no difference between the two routes
[9] = PO 30 mg/kg BID, from 3 days before LPS (i.p. 750 µg/kg, 5 days)

T1 sequence (Q9Y463 1-589 isoform Q9Y463-2): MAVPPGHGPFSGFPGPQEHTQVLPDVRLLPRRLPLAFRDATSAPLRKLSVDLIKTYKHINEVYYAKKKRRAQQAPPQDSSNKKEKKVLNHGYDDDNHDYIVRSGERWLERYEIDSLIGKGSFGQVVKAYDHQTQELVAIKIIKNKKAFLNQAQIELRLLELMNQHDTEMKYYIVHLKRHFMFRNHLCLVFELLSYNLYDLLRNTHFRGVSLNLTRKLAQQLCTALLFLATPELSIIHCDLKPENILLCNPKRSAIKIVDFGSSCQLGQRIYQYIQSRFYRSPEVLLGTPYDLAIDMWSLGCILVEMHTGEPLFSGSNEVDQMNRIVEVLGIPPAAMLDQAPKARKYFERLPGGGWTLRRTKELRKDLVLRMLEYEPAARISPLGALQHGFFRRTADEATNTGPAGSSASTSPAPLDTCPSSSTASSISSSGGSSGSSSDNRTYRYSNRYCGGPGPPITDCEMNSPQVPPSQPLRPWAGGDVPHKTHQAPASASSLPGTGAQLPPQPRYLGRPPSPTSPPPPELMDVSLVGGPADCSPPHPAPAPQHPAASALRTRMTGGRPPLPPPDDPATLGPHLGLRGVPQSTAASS

COc1cc(C(=O)O[C@@H]2Cc3c(O)cc(O)cc3O[C@H]2c2cc(O)c(O)c(O)c2)c(F)c(O)c1O [Compound 1c]
IC50 [1]: 0.079 µM | IC50 [2]: 0.331 µM | IC50 [3]: 0.073 µM | mode of inhibition with varying ATP [4]: non-ATP-competitive inhibitor | tyrosine-hydroxylase-positive cells in the substantia nigra pars compacta ([5]; IN 25 mg/kg BID): failed to show any histological difference | movement behavior, pole test [5, 8]: completely restored | movement behavior, rotarod test [5, 8]: completely restored | tyrosine-hydroxylase-positive cells in the substantia nigra pars compacta ([5]; PO 25 mg/kg BID): protected from MPTP toxicity | in vitro and in vivo safety studies, outcome [6]: have not reveled any concerns | inhibition of tau phosphorylation ([7]; IN 30 mg/kg BID, LPS i.p. 750 µg/kg): lack of efficacy | tau phosphorylation in the hippocampus ([7]; PO 30 mg/kg BID, LPS i.p. 750 µg/kg): reduced tau phosphorylation | TNFα accumulation in plasma [7, 9]: significantly (p < 0.05) decreasing | TNFα accumulation in the brain [7, 9]: significantly (p < 0.05) decreasing
